Data from patent US20140228407A1, “TETRA-PYRIDINE COMPOUNDS AND COMPOSITION FOR PROTECTING CELLS, TISSUES AND ORGANS AGAINST ISCHEMIA-REPERFUSION INJURY” (YISSUM RESEARCH DEVELOPMENT COMPANY OF THE HEBREW …, priority 2011, published 2014).
Marks after values point to notes of the source that are not given here.

Tests used:
[1] = test system: neonate rat cardiomyocyte cells; assay: Hypoxia/ischemia in neonatal rat cardiomyocyte cultures, LDH release; type: cell-based; details: 30, 100 and 300 nm compound vs 1 μM TPEN; 150 min ischemia then reoxygenation
Protocol: Rat hearts (1-2 days old) were sterilely removed and bathed three times in Ca^2+- and Mg^2+-free PBS to remove excess blood cells. The hearts were minced to small fragments and then agitated in a proteolytic enzyme-RDB solution prepared from a fig tree extract as described previously (Brik et al., 1990; Shneyvays et al., 2001). The RDB was diluted 1:200 in PBS at 25° C. for a few cycles of 10 min each. The supernatant suspension containing dissociated cells, to which medium containing 10% horse serum was added, was centrifuged at 500 g for 5 min. After centrifugation, the supernatant phase was discarded, and cells were resuspended in Dulbecco's modified Eagle medium supplemented with 10% heat-inactivated horse serum and 0.5% chick embryo extract. Cell suspensions were diluted to 1×10^6 cells/ml, and 300 μl was placed in 24 well plates (4 plates) collagen/gelatin-coated plastic culture dishes. Cultures were incubated in a humidified atmosphere of 5% CO2 and 95% air at 37° C. […] The growth medium was replaced every 3 days. The experiments were performed in vitro on these cardiomyocyte cultures after 3 to 5 days. […]
LDH activity was determined using LDH-L kit (Thermo Trace, Melbourne, Australia) within the cardiac cell medium (PBS). […] LDH enzymatic activity was measured in a spectrophotometer at a wavelength of 340 nm at 30° C. […]

PC12 cells = assay: PC12 ischemic model (oxygen and glucose deprivation), cell death by LDH measurement; type: cell-based; details: for protection percentile: protection from cell death, FIG. 6B: identical for both compounds
Protocol: PC12 cells were grown in 25 cm^2 flasks in Dulbecco's modified Eagles Medium (DMEM), supplemented with 7% fetal bovine serum (FBS), 7% horse serum, […] penicillin and 100 μg/ml streptomycin. Cells were grown in humidified incubator 5% CO2, 95% air at 37° C. The medium was replaced every 2 days, and upon 70% confluence, the cells were counted and seeded for the ischemia experiments.
Approximately 1×10^6 PC12 cells/well were cultured and exposed to ischemia (oxygen and glucose deprivation=OGD) for 4.5 hr. Prior to the exposure, the growth medium was replaced with glucose-free DMEM (1 ml/well). Ischemia was performed in a closed chamber by replacement of air with 95% nitrogen/5% CO2.
Ischemic stress injury was characterized by lactate dehydrogenase (LDH) released from cells. After 4.5 hr of ischemia, a 50 μl sample of supernatant was taken from each well for LDH measurement. At the end of the ischemic insult (after 4.5 hr), glucose (at final concentration of 4.5 g/L by adding 10 μl from stock solution of 450 mg/ml per well (1 ml)) was added to the plates which underwent ischemia. The plates were then transferred to a humidified incubator and exposed to 95% air/5% CO2 at 37° C. for additional 18 hr of reoxygenation. DMEM supernatant samples (25 μl/well) were collected from each well for LDH measurements. The samples were centrifuged at 3500 rpm for 5 min, and 5 μl aliquots of supernatant was taken for LDH measurement.
For every experiment, a duplicate plate was prepared as a control study under normoxia. Cells were kept in a humidified incubator (5% CO2 and 95% air at 37° C.) in cell culture complete medium at a volume of 1 ml for 18 hr, and the same compounds were added with the same concentrations. Supernatant was collected for LDH measurement as indicated in the LDH activity measurement section below. Afterwards (at the end of the reoxygenation phase), the plates were frozen (at −70° C. for 30 min) and thawed once. 25 μl/well sample was collected and the samples were centrifuged at 3500 rpm for 5 min and then taken for LDH measurement (total).
LDH activity was determined using LDH-L kit (Pointe Scientific Inc., Michigan, USA) in the PC12 cell medium. Medium samples (5 μl) were collected at the end of the ischemic insult (after 4.5 hr) and after the reoxygenation period. In parallel, samples from the plates exposed to normoxia were collected. LDH enzymatic activity was measured in a spectrophotometer at a wavelength of 340 nm at 37° C. Data analysis was performed as follows: [OD (cycle 3)−OD (cycle 1)experiment]−[OD(3)−OD(1) control])/[OD(3)−OD(1) total]×100, and presented as percentage of total cell death.
One day before the experiment, 12-well plates were coated with 200 μg/ml type I rat tail collagen (BD Biosciences, Bedford, Mass.) and were further sterilized under UV. 1×10^6 PC12 undifferentiated cells/well were seeded on the plates and allowed to adhere overnight under regular conditions (DMEM medium high glucose 4.5 mg/ml, 5% CO2 and 95% air at 37° C.). Each experiment included 4 plates, two for normoxia and two for ischemia which underwent the same following treatment for all 4 plates.
A half hour before the onset of the ischemic insult, the antioxidant Tempol (4-hydroxy-2,2,6,6-tetramethylpiperidine-1-oxyl) (Sigma, St. Louis, Mo.) at a concentration of 0.5 mM (10 μl/well taken from a 8.6 mg/ml stock solution) or TPEN at a concentration of 3 μM and 10 μM were added to the plates. Before the experiments, the medium was replaced with DMEM glucose free medium at 1 ml volume/well. TPEN or 10 μl Tempol were again added to the appropriate wells and was maintained throughout all experiments.
Thereafter, the plates were introduced into a device inducing ischemia atmosphere with 95% nitrogen and 5% CO2 for 4.5 hr. Oxygen level was monitored online by a digital oxygen monitor showing up to 1%. At the end of OGD, 25 μl from each well was collected into 0.5 ml tubes for the LDH assay. […]

[2] = test system: model of ischemia/reperfusion in the CD rat; assay: Rat model of ischemia/reperfusion, cardiovascular monitoring (blood pressure, heart rate; Phase B); type: in vivo; details: positive control 5000 IU/kg bolus; within 5-10 minutes of reperfusion
Protocol: The animals in Phase B were monitored for selected cardiovascular endpoints from at least 15 minutes prior to acute myocardial infarction until at approximately 1 hour post reperfusion. Blood samples for the evaluation of Troponin I were collected from all surviving Phase B animals prior to coronary artery occlusion and at termination. At study termination, the Phase B animals were submitted to necropsy for limited necropsy examinations and infarct analysis.
(§1) In Phase B, Compound #6 was administered once on Day 0 via intravenous infusion at dose levels of 0.2 and 2 mg/kg. The doses were administered at a dose volume of 1 mL/kg (0.05 [2 mg/kg] or 0.033 [0.2 mg/kg] mL/kg/minute). Two control groups received the vehicle (saline) or the vehicle for Compound #6 (10% (w/v) 2-hydroxypropyl-beta-cyclodextrin and 100 mM sodium chloride in deionized water) in the same manner as the 2 mg/kg treated group. The vehicles and 2 mg/kg Compound #6 were administered intravenously via a slow infusion starting 3 to 14 minutes prior to reperfusion and continuing for 20 minutes to 20 minutes and 32 seconds, which was approximately 6 to 17 minutes after reperfusion (depending on the infusion start time). The 0.2 mg/kg Compound #6 was administered intravenously via a slow infusion starting 10 minutes prior to reperfusion and continuing for 30 minutes to 30 minutes and 30 seconds, which was approximately 20 minutes after reperfusion. The positive control article, Erythropoietin, was administered at 5000 IU/kg via a bolus intravenous injection. The positive control article dose was administered at a dose volume of 2.5 mL/kg. The positive control was administered via a 3 to 60 second injection at 5 minutes prior to reperfusion.
In Phase B, animals were anesthetized for monitoring of selected cardiovascular parameters. For experimentation, the blood pressure catheter implanted in the carotid artery was attached to an external transducer and data acquisition was started. Blood pressure (systolic, diastolic, and mean arterial) and heart rate (derived from blood pressure) were monitored from at least 15 minutes prior to acute myocardial infarction (AMI) until at least 1 hour after reperfusion. Individual animal cardiovascular data tables are not reported but are maintained in the study file.

[3] = test system: model of ischemia/reperfusion in the CD rat; assay: Rat model of ischemia/reperfusion, infarct analysis (Phase B); type: in vivo; details: positive control 5000 IU/kg bolus intravenous injection
Protocol: This study was conducted to evaluate the effects of the Compound #6 on cardiac function, infarct size, and Troponin I levels in a model of ischemia/reperfusion in the CD® (CR1CD® (SD)) rat. Phase A was conducted for toxicity evaluation purposes. In Phase B (the efficacy phase), two treatment groups of eight male rats were administered Compound #6 at dose levels of 0.2 and 2 mg/kg via intravenous infusion following myocardial infarction. The 2 mg/kg dose of Compound #6 was administered intravenously via a slow infusion starting 3 to 14 minutes prior to reperfusion and continuing for 20 minutes to 20 minutes and 32 seconds, which was approximately 6 to 17 minutes after reperfusion (depending on the infusion start time). The 0.2 mg/kg dose of Compound #6 was administered intravenously via a slow infusion starting 10 minutes prior to reperfusion and continuing for 30 minutes to 30 minutes and 30 seconds, which was approximately 20 minutes after reperfusion.
The animals were placed on mechanical ventilation and […]. Once anesthetized, the animal was placed in a right lateral recumbency, an arterial catheter or polyethylene tube was placed in the carotid artery for monitoring blood pressure and a thoracotomy was performed. The left coronary artery (LCA) was identified. A ligature was placed around the LCA and the vessel was ligated. The LCA was maintained occluded for 29 to 43 minutes. Occlusion of the vessel was verified via blanching of the heart and via ST interval changes. At the end of the occlusion period, the knot was loosened leaving the ligature in place, and the vessel was allowed to reperfuse for 3 hours 27 minutes to 4 hours 51 minutes. Following infarct, a chest tube was placed, the deep and superficial muscle layers were sutured at the surgical incision, and the skin was closed with staples. The chest tube was removed after spontaneous respiration was established. In Phase A, the animals were recovered from anesthesia and evaluated for 4 days. In Phase B, animals were maintained under anesthesia for 3 hours 27 minutes to 4 hours 51 minutes prior to being submitted to necropsy.
as §1
After LAD reperfusion (4 hours), the animals were euthanized by an intraperitoneal injection of sodium pentobarbital followed by exsanguination via severing the abdominal vena cava. The heart was flushed with heparinized Lactated Ringers Solution (LRS) until clear of blood and the LAD was tied off using the same ligature used to occlude the vessel and Evan Blue dye was injected. The heart was weighed and breadloafed (4-5 sections per animal). […]

c1c[nH]c(CN(CCN(Cc2ncc[nH]2)Cc2ncc[nH]2)Cc2ncc[nH]2)n1 [Compound #4]
protective effect against hypoxic insult (LDH release) compared with TPEN, FIG. 1A [1]: only slightly more effective than TPEN

c1ccc(CN(CCN(Cc2ccccn2)Cc2ccccn2)Cc2ccccn2)nc1 [TPEN, N,N,N′,N′-tetrakis-(2-pyridylmethyl)-ethylenediamine, reference compound]
reducing death of PC12 cells subjected to ischemia (LDH), FIG. 2 (PC12 cells; 10 μM, 4.5 hours ischemia): effective | reducing death of PC12 cells, comparison vs. Tempol, FIG. 2 (PC12 cells; TPEN 10 μM vs Tempol 0.5 mM, 4.5 hours ischemia): significantly effective vs. Tempol | protection percentile: protection from cell death, FIG. 6B (PC12 cells; first of two selected concentrations (not given)): 7% | protection percentile: protection from cell death, FIG. 6B (PC12 cells; second of two selected concentrations (not given)): 19%

EPO: positive control article, erythropoietin [reference compound]
mean arterial pressures after reperfusion [2]: increased | cardiac damage compared to saline control animals, in words [3]: significantly less cardiac damage | Infarct/AAR (%) Mean ([3]; 4 hour reperfusion, rat): 22^b % | Infarct/LV (%) Mean ([3]; rat): 8%
